Laboratory results published in US20030086869A1, “Methods and kits for diagnosing a pancreatic-based fat malabsorption disorder” (priority 2001, published 2003).

Tests used:
[1] = Malabsorption Blood Test (MBT): serum levels of PA and HA after oral PA and THA test breakfast meal in healthy control subjects; type: in vivo, human
Procedure: (§1) Both whole post-absorptive serum and isolated chylomicron fractions of the serum are analyzed for fatty acid composition. Chylomicrons are isolated from plasma by centrifugation at d=1.006 g/ml for 30 minutes at 26,000 g (Hatch, F. T., et al., 1968; Adv. Lipid Res., 6:1-68). Total lipids are extracted from each specimen following the method of Bligh and Dyer (Bligh, E. G., et al., 1959; Can. J. Biochem., 37:911-917). Following transmethylation of the lipid extracts using BF3-methanol, fatty acid composition is determined using gas-liquid chromatographic (GLC) analysis using a Hewlett Packard GLC equipped with a flame ionization detector, an automatic 7673 sampler and […]×0.25 mm ID column composed of a 0.20 micron film of SP-2560 (Supelco, Bellefonte, Pa.) (Morrison, W., et al., 1964; J. Lipid Res. 5:600-608). The temperature is programmed to change from 140° C. to 240° C. at a rate of 4° C./minute. At the time of extraction, heptadecanoic methyl ester is added as an internal standard.
Healthy control subjects between 18 and 50 years of age were selected. Exclusion criteria included: any chronic illness known to affect nutrient absorption, body mass index (BMI) <21 or >30 kg/m^2 (generally accepted healthy adult ranges), therapy with lipid lowering drugs, diabetes mellitus (NIDDM and IDDM), disorders associated with altered energy metabolism (e.g., hypothyroidism) and disinterest in participating in all three dosing experiments. This adult age range was selected for several reasons: (a) adult subjects are likely to remain committed to all three components of the study; (b) adults will understand the need to provide reliable feedback on taste and tolerance of the test breakfast meal and the entire malabsorption test procedure; and (c) adult subjects are able to plan the experimental day for full cooperation with the multiple phlebotomy events from 0700 to 1500 hours.
Upon arrival at the study center, subjects had their weight and height measured and an experienced phlebotomist inserted a self-retaining intravenous catheter with a heparin lock for serial blood sampling. After initially drawing 2 milliliters of blood into a sterile syringe, the experimental blood sample (2 milliliters) was drawn and immediately stored in a 4-milliliter serum separator tube. Thereafter, the initial 2 milliliters of blood was infused back into the catheter followed by 2 milliliters of heparin flush. After the baseline blood samples were obtained, the subjects drank an approximately 8 to 12 ounce liquid test breakfast meal. This meal contained one to three doses of PA and THA in a random distribution. Subjects were asked to consume the test breakfast meal within five minutes. Thereafter, serial blood samples were obtained at regular intervals over a period ranging from 30 minutes to 24 hours. During the initial eight-hour period, subjects were permitted to ingest non-caloric and non-caffeinated beverages. A study protocol lunch of known fat content was provided and actual food intake was recorded. Ambulation was limited to maintain adherence to the 30 to 60 minute intervals in the blood sampling schedule. After completion of the blood sampling, the catheter was removed, a snack was offered, and the subjects were encouraged to consume a full meal. The lipid doses (mg/kg) of PA and THA used in this experiment were based on doses 10-fold higher than similar fats used to correct essential fatty acid deficiency in cystic fibrosis, and previous studies which used ^13C […] to qualitatively assess fat malabsorption in pancreatic disease (Rosenlund, M. L., et al., 1977;Pediatrics, 59:428-32; Wutzke, K. D., et al., 1999; J. Pediatr. Gastroenterol. Nutr., 29:148-54).
Four healthy control subjects were administered a dose of 30 mg/kg PA and 30 mg/kg THA in the digestible composition (a liquid breakfast shake) after a 12-hour fast. Blood was drawn at baseline before consumption of the shake and then every 30 minutes thereafter until hour 6. […]

[2] = MBT absorption of PA and HA prior to Orlistat in fifteen healthy subjects; type: in vivo, human; details: PA 2.5 grams and THA 8.0 grams, FIG. 10, 11
Description: Fifteen healthy adult subject volunteers (9 women) 18 to 50 years of age were recruited through local advertisements. Exclusion criteria included: any chronic illness known to affect nutrient absorption, body mass index (BMI) of less than 21 or greater than 30 kg/m^2 (i.e., outside of generally accepted healthy adult ranges), therapy with lipid lowering drugs, diabetes mellitus (NIDDM, IDDM) and disorders associated with altered energy metabolism (e.g., hypothyroidism). This adult age range was selected because Orlistat is FDA approved in adults. In addition, adults are able to plan the experimental days for cooperation with four days of the research study diet, outpatient 72-hour stool collection and phlebotomy requirements. […]
Subjects underwent a 12-hour fast from 2100 hours on day #1 of the study. […] Upon arrival at the study center on the morning of day #2, subjects had their weight and height measured, and an experienced phlebotomist inserted a self-retaining intravenous catheter with a heparin lock for serial blood sampling. […] The number and timing of blood samples was determined by the experiments in Example 1, and was expected to be six or fewer samples over an eight-hour or less time period. […]

[3] = MBT serum levels of PA and HA in subjects with CF and pancreatic insufficiency on and off pancreatic enzymes; type: in vivo, human
Procedure: as §1
Subjects with CF and pancreatic insufficiency currently treated with pancreatic enzymes, aged greater than 8 years were recruited. Exclusion criteria included: forced expiratory volume of the lungs at 1 second (FEV1) <40%, a history of fibrosing colonopathy or significant bowel resection (>10 cm), mental retardation, significant neurological deficit, developmental disability and autism. Subjects are in their usual state of good health. This age range was selected because it includes children during active growth where information regarding degree of malabsorption leads to improved nutritional intervention and pancreatic enzyme therapy. Also, children greater than 8 years of age are mature enough to provide assent and feedback concerning acceptability and tolerance of the MBT.
In the experiments shown in FIGS. 12 through 15, three subjects with CF were given either 30 mg/kg PA and 60 mg/kg THA (2 subjects) or 30 mg/kg PA and 90 mg/kg THA (1 subject) in a digestible composition consisting of a liquid breakfast shake after a 12 hour fast. The subjects were tested while they were taking their usual doses of pancreatic enzymes and then were tested again (more than one week later) when they were not taking pancreatic enzymes. Blood was sampled at baseline and then at hourly intervals from 2 to 8 hours and then sampled again at 24 hours. Subjects were fed a prepared lunchtime meal with a known quantity of fat (80 grams). The individual results for fat absorption for the 3 subjects with CF on enzymes are presented in FIG. 12 for PA and FIG. 13 for HA. For the same 3 subjects with CF off enzymes, the results for fat absorption are presented in FIG. 14 for PA and FIG. 15 for HA.
Additional experiments were performed on six subjects with CF either on or off pancreatic enzyme treatment. The serum levels of PA and HA in these six subjects on and off pancreatic enzyme treatment are presented in FIG. 16 anf FIG. 17, respectively.

[4] = molecular target: T1, pancreatic lipase (Homo sapiens, UniProt P16233); experiment: MBT before and after Orlistat treatment in healthy adult subjects (pharmaceutically induced fat malabsorption); type: in vivo
T1 construct: from tissue; host or cells: in vivo: endogenous pancreatic secretion in the small intestine of healthy adult subjects
T1 sequence (P16233 17-465): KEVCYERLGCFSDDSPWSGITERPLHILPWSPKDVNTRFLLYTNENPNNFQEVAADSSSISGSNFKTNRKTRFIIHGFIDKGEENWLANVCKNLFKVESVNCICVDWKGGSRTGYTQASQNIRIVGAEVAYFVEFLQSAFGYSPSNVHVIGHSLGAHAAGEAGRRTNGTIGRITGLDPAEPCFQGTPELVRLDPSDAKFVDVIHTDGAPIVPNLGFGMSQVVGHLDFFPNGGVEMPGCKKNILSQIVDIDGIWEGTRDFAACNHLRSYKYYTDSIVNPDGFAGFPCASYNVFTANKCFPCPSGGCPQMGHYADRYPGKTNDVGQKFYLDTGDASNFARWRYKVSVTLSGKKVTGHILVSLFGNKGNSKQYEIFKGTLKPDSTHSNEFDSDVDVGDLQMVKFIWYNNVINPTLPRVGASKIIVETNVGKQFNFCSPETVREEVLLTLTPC
T1 sequence (P04118 23-112 partner): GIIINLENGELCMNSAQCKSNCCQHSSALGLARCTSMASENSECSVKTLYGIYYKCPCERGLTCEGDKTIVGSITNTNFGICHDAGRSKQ
Procedure: Analysis of the baseline and subsequent half-hourly or hourly serum samples taken for up to eight hours for the three doses of pentadecanoic acid (PA) and triglyceride containing heptadecanoic fatty acids (THA) are used to create time-dependent measured and normalized measured (see below) dosage response curves. Each concentration is analyzed independently for each subject and as a complete set for all subjects to determine the rates of absorption, distribution, and elimination for each of the measured fatty acids PA and heptadecanoic acid (HA) and the pancreatic enzyme activity for the hydrolysis of THA. The simplest model to determine a coefficient of fat absorption and an index of pancreatic enzyme activity is derived from the set of normal subjects and subsequently applied to subjects before and during therapy with a pancreatic enzyme inhibitor (Orlistat). Finally, this model is applied to subjects with CF receiving various levels of enzyme therapy to determine their coefficient of fat absorption and their index of enzymatic activity. In the simplest possible situation, the measured levels of both HA and PA are dose independent and reach an early and prolonged steady state in either whole plasma or in the chylomicron fraction. In that case, the normalized PA and HA can be compared against a CFA measured using the conventional standard 72 hour stool and diet collection method for the same patient and an appropriate conversion factor (which may be dependent upon the BMI) can be determined from the data. The ratio of the normalized HA to the normalized PA is defined as an index reflecting the pancreatic enzymatic activity profile during the absorption phase. The data is analyzed for any dependence of this index upon the patient's age or BMI. The comparisons before and after therapy with Orlistat are expected to reflect a decrease in this index of approximately 70%. […]

[5] = four healthy control subjects, 30 mg/kg PA and 60 mg/kg THA, FIG. 3A, 4, 5A
[6] = four healthy control subjects, 30 mg/kg PA and either 60 or 90 mg/kg THA oral, FIG. 1 model
[7] = subjects with CF on pancreatic enzymes

delay before rise in serum concentration ([1]; four healthy control subjects, 30 mg/kg PA and 30 mg/kg THA, liquid breakfast shake after 12-hour fast, FIG. 2) [h] | time at which increase in serum level is evident / begins [1, 5] [h] | time of peak serum level [1, 5] [h] | time of peak serum level ([1]; four healthy control subjects, 30 mg/kg PA and 90 mg/kg THA, FIG. 6-8) [h] | peak serum level ([1]; four healthy control subjects, 30 mg/kg PA and either 60 or 90 mg/kg THA oral at baseline, FIG. 1 model) | time of peak serum level [1, 6] [h] | time post-dose before serum level rises [1, 6] | concentration at 8 h ([1]; human, serum, four healthy control subjects, 30 mg/kg PA and either 60 or 90 mg/kg THA oral, FIG. 1 model, read-out: serum level by eight hours post dose) [ng/mL] | time up to which serum response continued to increase (sharp decrease after) ([1]; six healthy volunteers, PA 2.5 grams and THA 5.0 or 8.0 grams, FIG. 5B) [h] | average absorption [2] | serum level response ([3]; subjects with CF off pancreatic enzymes) | delay before serum levels increased [3, 7] [h] | time of peak serum level [3, 7] | serum levels compared with healthy control subjects ([3]; subjects with CF taking pancreatic enzymes) | SMILES | expected decrease in index of pancreatic enzymatic activity (ratio of normalized HA to normalized PA) after therapy with Orlistat ([4]; comparison before and after therapy with Orlistat, expected value of the model) | expected estimated pancreatic enzyme activity in the presence of Orlistat, relative to normal (unsuppressed) activity ([4]; fraction of absorbed HA versus fraction of absorbed PA, expected value of the model) | serum response of PA prior to versus after receiving Orlistat ([4]; healthy subjects, Orlistat 240 mg TID, PA 2.5 grams and THA 8.0 grams, FIG. 9)
3 to 4 | 3 | 6 | 6 | approximately 3 mg/dL | 6 | two | ~10000 | 6 | approximately 45% | no increase in serum levels | 2 | approximately 6 hours | lower | CCCCCCCCCCCCCCCCC(=O)O [HA, heptadecanoic acid] | – | – | –
– | – | – | – | – | – | – | – | – | – | – | – | – | – | CCCCCCCCCCC[C@@H](C[C@@H]1OC(=O)[C@H]1CCCCCC)OC(=O)[C@H](CC(C)C)NC=O [Orlistat] | approximately 70% | about 70% | similar
